In patent US20170037028A1 (BAYER PHARMA AKTIENGESELLSCHAFT, priority 2013, published 2017):

molecular target: T1, GLUT1 (Homo sapiens, UniProt P11166); assay: Indirect measurement of GLUT1 activity by quantification of intracellular ATP levels (glucose induced ATP increase); assay type: cell-based; parameters: endogenous in cells; host or cells: DLD1 or CHO-K1; details: read-out: IC50 regarding glucose induced ATP increase (GLUT1 inhibition)
T1 sequence (P11166 1-492): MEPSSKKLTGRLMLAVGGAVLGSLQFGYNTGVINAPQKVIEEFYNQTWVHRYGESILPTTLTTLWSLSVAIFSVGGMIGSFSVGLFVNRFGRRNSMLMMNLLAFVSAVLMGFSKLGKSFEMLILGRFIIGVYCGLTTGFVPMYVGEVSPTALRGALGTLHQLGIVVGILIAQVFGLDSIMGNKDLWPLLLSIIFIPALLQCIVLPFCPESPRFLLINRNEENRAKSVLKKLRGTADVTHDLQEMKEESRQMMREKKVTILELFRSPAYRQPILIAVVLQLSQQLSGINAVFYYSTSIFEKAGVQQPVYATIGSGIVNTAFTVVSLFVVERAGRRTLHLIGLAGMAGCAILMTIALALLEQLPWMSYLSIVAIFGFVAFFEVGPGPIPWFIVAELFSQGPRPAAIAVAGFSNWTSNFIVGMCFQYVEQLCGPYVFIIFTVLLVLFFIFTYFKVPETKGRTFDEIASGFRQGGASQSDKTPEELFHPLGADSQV
Summary of the method: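 Intracellular ATP was measured by CellTiter-Glo luminescence as an indirect readout of transport: glucose-driven for GLUT1, fructose-driven for GLUT2. DLD1 or CHO-K1 cells were used alongside an oxidative phosphorylation inhibitor. Beforehand, cells were held overnight in glucose-free 1% FCS medium to deplete ATP.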

IC50 [nM] | Structure (SMILES)
3.2 | Cc1nn(Cc2ncccc2C#N)c(C)c1NC(=O)c1cc(C(N)=O)nc2cc(F)c(Cl)cc12 [Example 1411]
1.1 | CCc1ccc(Cn2nc(C(F)(F)F)c(NC(=O)c3cc(C(N)=O)nc4ccccc34)c2C)cc1 [Example 1413]
0.8 | CCc1ccc(Cn2nc(C(F)(F)F)c(NC(=O)c3cc(C(N)=O)nc4ccc(Br)cc34)c2C)cc1 [Example 1414]
3.3 | CCc1ccc(Cn2nc(C(F)(F)F)c(NC(=O)c3cc(C(N)=O)nc4cc(F)c(Cl)cc34)c2C)cc1 [Example 1415]
97 | Cc1nn(Cc2ccncn2)c(C)c1NC(=O)c1cc(C(F)(F)F)nc2ccc(Br)cc12 [Example 1416]
164 | Cc1nn(Cc2ccncn2)c(C)c1NC(=O)c1cc(C(N)=O)nc2ccccc12 [Example 1417]
34.1 | COc1cc(C(=O)Nc2c(C#N)nn(Cc3ccc(F)cc3)c2C)c2ccccc2n1 [Example 1418]
24.6 | Cc1nn(Cc2ccc(C(=O)N3CCC3)cc2)c(C)c1NC(=O)c1cc(C(N)=O)nc2cc(F)ccc12 [Example 1419]
354 | Cc1nn(Cc2ccc(C(=O)NCCO)cc2)c(C)c1NC(=O)c1cc(C(N)=O)nc2cc(F)ccc12 [Example 1420]
39 | COCCNC(=O)c1ccc(Cn2nc(C)c(NC(=O)c3cc(C(N)=O)nc4cc(F)ccc34)c2C)cc1 [Example 1421]
7110 | Cc1nn(Cc2ccc(C(=O)NCCN(C)C)cc2)c(C)c1NC(=O)c1cc(C(N)=O)nc2cc(F)ccc12 [Example 1422]
29.6 | Cc1nn(Cc2ccc(C(=O)O)cc2)c(C)c1NC(=O)c1cc(C(N)=O)nc2cc(F)ccc12 [Example 1423]
69.1 | Cc1nn(Cc2ccc(C(N)=O)cc2)c(C)c1NC(=O)c1cc(C(N)=O)nc2cc(F)ccc12 [Example 1424]
56.3 | CNC(=O)c1ccc(Cn2nc(C)c(NC(=O)c3cc(C(N)=O)nc4cc(F)ccc34)c2C)cc1 [Example 1425]
80 | Cc1nn(Cc2ccc(C(=O)N(C)C)cc2)c(C)c1NC(=O)c1cc(C(N)=O)nc2cc(F)ccc12 [Example 1426]
12.3 | Cc1nn(Cc2ccc(C#N)cc2)c(C)c1NC(=O)c1cc(C(=O)N2CCC2)nc2cc(F)ccc12 [Example 1428]
29.4 | Cc1c(NC(=O)c2cc(C(N)=O)nc3cc(F)ccc23)c(C(F)(F)F)nn1Cc1ccc(S(C)(=O)=O)cc1 [Example 1429]
66.3 | Cc1c(NC(=O)c2cc(C(F)(F)F)nc3ccc(Br)cc23)c(C(F)(F)F)nn1Cc1ccc(S(C)(=O)=O)cc1 [Example 1430]
138 | COc1cc(C(=O)Nc2c(C(F)(F)F)nn(Cc3ccc(S(C)(=O)=O)cc3)c2C)c2ccccc2n1 [Example 1431]
27.4 | Cc1c(NC(=O)c2cc(C(N)=O)nc3ccccc23)c(C(F)(F)F)nn1Cc1ccc(S(C)(=O)=O)cc1 [Example 1432]
51.3 | Cc1c(NC(=O)c2cc(C(N)=O)nc3ccc(NCCN(C)C)cc23)c(C(F)(F)F)nn1Cc1ccc(C#N)cc1 [Example 1434]
2.8 | Cc1c(NC(=O)c2cc(C(N)=O)nc3cc(F)ccc23)c(C(F)(F)F)nn1Cc1ccc(F)cc1F [Example 1435]
63.2 | COc1cc(C(=O)Nc2c(C(F)(F)F)nn(Cc3ccc(F)cc3)c2C)c2ccccc2n1 [Example 1436]
13.9 | Cc1c(NC(=O)c2cc(C(N)=O)nc3cccc(F)c23)c(C(F)(F)F)nn1Cc1ccc(S(C)(=O)=O)cc1 [Example 1437]
3.1 | Cc1c(NC(=O)c2cc(C(N)=O)nc3cc(F)c(Cl)cc23)c(C(F)(F)F)nn1Cc1ccc(S(C)(=O)=O)cc1 [Example 1438]
1.9 | Cc1c(NC(=O)c2cc(C(N)=O)nc3ccc(Br)cc23)c(C(F)(F)F)nn1Cc1ccc(S(C)(=O)=O)cc1 [Example 1439]

IC50 [nM] | Structure (SMILES)
5.4 | Cc1c(NC(=O)c2cc(C(N)=O)nc3cccc(F)c23)c(C(F)(F)F)nn1Cc1ccc(F)cc1F [Example 1440]
6.5 | Cc1c(NC(=O)c2cc(C(N)=O)nc3cc(F)c(Cl)cc23)c(C(F)(F)F)nn1Cc1ccc(F)cc1F [Example 1441]
2 | Cc1c(NC(=O)c2cc(C(N)=O)nc3ccc(Br)cc23)c(C(F)(F)F)nn1Cc1ccc(F)cc1F [Example 1442]
4 | Cc1c(NC(=O)c2cc(C(N)=O)nc3cccc(F)c23)c(C(F)(F)F)nn1Cc1ccc(F)c(F)c1 [Example 1443]
11.6 | Cc1c(NC(=O)c2cc(C(N)=O)nc3cc(F)c(Cl)cc23)c(C(F)(F)F)nn1Cc1ccc(F)c(F)c1 [Example 1444]
5.7 | Cc1c(NC(=O)c2cc(C(N)=O)nc3ccc(Br)cc23)c(C(F)(F)F)nn1Cc1ccc(F)c(F)c1 [Example 1445]
1.9 | COc1cccc(Cn2nc(C(F)(F)F)c(NC(=O)c3cc(C(N)=O)nc4cc(F)c(Cl)cc34)c2C)c1 [Example 1446]
23.2 | COc1cccc(Cn2nc(C(F)(F)F)c(NC(=O)c3cc(C(N)=O)nc4cc(F)ccc34)c2C)c1 [Example 1447]
6.9 | COc1cccc(Cn2nc(C(F)(F)F)c(NC(=O)c3cc(C(N)=O)nc4ccccc34)c2C)c1 [Example 1448]
18.7 | COc1cccc(Cn2nc(C(F)(F)F)c(NC(=O)c3cc(C(N)=O)nc4cccc(F)c34)c2C)c1 [Example 1449]
2.3 | COc1cccc(Cn2nc(C(F)(F)F)c(NC(=O)c3cc(C(N)=O)nc4ccc(Br)cc34)c2C)c1 [Example 1450]
8.5 | COc1cccc(Cn2nc(C)c(NC(=O)c3cc(C(N)=O)nc4cccc(F)c34)c2C)c1 [Example 1451]
8.8 | COc1cccc(Cn2nc(C)c(NC(=O)c3cc(C(N)=O)nc4ccccc34)c2C)c1 [Example 1452]
1.4 | COc1cccc(Cn2nc(C)c(NC(=O)c3cc(C(N)=O)nc4cc(F)c(Cl)cc34)c2C)c1 [Example 1453]
13.3 | Cc1nn(Cc2cccc(C#N)c2)c(C)c1NC(=O)c1cc(C(N)=O)nc2cc(F)ccc12 [Example 1454]
20.8 | Cc1nn(Cc2cccc(C#N)c2)c(C)c1NC(=O)c1cc(C(N)=O)nc2ccccc12 [Example 1455]
1.5 | Cc1nn(Cc2cccc(C#N)c2)c(C)c1NC(=O)c1cc(C(N)=O)nc2cc(F)c(Cl)cc12 [Example 1456]
15.2 | Cc1nn(Cc2cccc(C#N)c2)c(C)c1NC(=O)c1cc(C(N)=O)nc2cccc(F)c12 [Example 1457]
2.3 | COc1cccc(Cn2nc(C)c(NC(=O)c3cc(C(N)=O)nc4ccc(Br)cc34)c2C)c1 [Example 1458]
9.8 | COc1cccc(Cn2nc(C)c(NC(=O)c3cc(C(N)=O)nc4cc(F)ccc34)c2C)c1 [Example 1459]
1.9 | Cc1nn(Cc2ccc(OC(F)(F)F)cc2)c(C)c1NC(=O)c1cc(C(N)=O)nc2ccccc12 [Example 1460]
8.7 | Cc1nn(Cc2ccc(OC(F)(F)F)cc2)c(C)c1NC(=O)c1cc(C(N)=O)nc2cc(F)ccc12 [Example 1461]
2.9 | Cc1nn(Cc2ccc(OC(F)(F)F)cc2)c(C)c1NC(=O)c1cc(C(N)=O)nc2cccc(F)c12 [Example 1462]
4.1 | Cc1nn(Cc2ccc(OC(F)(F)F)cc2)c(C)c1NC(=O)c1cc(C(N)=O)nc2cc(F)c(Cl)cc12 [Example 1463]
5.5 | Cc1nn(Cc2ccc(OC(F)(F)F)cc2)c(C)c1NC(=O)c1cc(C(N)=O)nc2ccc(Br)cc12 [Example 1464]
5.1 | Cc1c(NC(=O)c2cc(C(N)=O)nc3ccccc23)c(C(F)(F)F)nn1Cc1ccc(OC(F)(F)F)cc1 [Example 1465]
